Test results: patent publication US12144299B2, “Mobilisation of transposable elements to enhance genetic and epigenetic variability in a population” (priority 2015, dated 2024)
Entries after “also recorded” stand apart in the source; their conditions may differ.

Assays:
[1] = system: A549 human cancer cell line; test: Global DNA methylation (5-mC DNA ELISA) in A549 cells; format: cell-based; settings: A 0.5 μg/ml, Z 350 μM
Description: (§1) For the A549 human cancer cell line cells were grown in medium without treatment or supplemented with either Z (350 μM) or A (0.5 μg/ml), DNA was extracted by using the QiaAmp DNA mini Kit (Qiagen, France). Next, global DNA methylation was estimated by quantifying the presence of 5-methylcytosine 5-mC DNA ELISA Kit (Zymo Research) according to the manufacturers's instructions. DNA methylation at the LINE-1 transposons were assessed with the Global DNA Methylation Assay—LINE-1 kit (Active Motif).

LINE-1 retrotransposon = test: LINE-1 DNA methylation assay in A549 cells; format: cell-based, human; settings: A 0.5 μg/ml, Z 350 μM
Description: as §1

ONSEN LTR = test: DNA methylation analysis (DdeI chop PCR, bisulfite sequencing) at the ONSEN LTR; format: in vivo, Arabidopsis thaliana
Description: 20 ng of total genomic DNA isolated from Arabidopsis seedlings was digested with the methylation sensitive restriction enzyme, Dde1 (NEB) at 37° C. over night. Following heat inactivation at 60° C. for 20 min, the digested DNA was used as a template for the chopPCR. Actin2 served as a control for the digest. Undigested DNA was used as a loading control. PCR products were separated on a 1% agarose gel and stained with Midori Green.

ONSEN retrotransposon = test: ONSEN extrachromosomal DNA accumulation by qPCR in seedlings after heat stress; format: in vivo, Arabidopsis thaliana; settings: HS
Description: After stratification for two days at 4° C., Arabidopsis thaliana plants (accession Col-0) were grown on sterile ½ MS medium with 1% sucrose and a pH of 5.8 (control medium) under long day conditions (16 h light) at 24° C. (day) and 22° C. (night), respectively. Oryza sativa plants were grown on sterile ½ MS medium with 1% sucrose and a pH of 5.8 (control medium) 16 h at 28° C. (day) and 27° C. (night), respectively.
The induction of epigenetic changes and the activation and stable integration of transposable elements in Arabidopsis seedlings was enhanced by germinating and growing them on ½ MS-medium that contained zebularine (final concentration: 10-40 μM), α-amanitin (final concentration: 0.005-20 μg/ml) or a combination of both chemicals (inductive media).
In order to trigger the transposition of the heat-responsive retrotransposon ONSEN, seven days old seedlings were exposed to a cold shock for 24 h at 6° C. followed by a heat-stress for 24 h at 37° C. (heat stress, HS) under controlled conditions in a growth chamber (Sanyo). Control plants were transferred back to longday-conditions 24° C. (day) and 22° C. (night) after the cold treatment at 6° C. for 24 h (CS, control stress, according to Ito et al., 2011).
Total DNA from seedlings and adult plants was isolated using a DNeasy Plant Mini Kit (QIAGEN).
In preparation to the measurement of extrachromosomal DNA copies of ONSEN in CS/HS and untreated/treated seedlings, roots were dissected directly after the heat stress and plants were immediately frozen in liquid nitrogen until DNA extraction.
The copy numbers of ONSEN were determined with qPCRs on total DNA using a TaqMan master mix (Life Technologies) in a final volume of 10 μl in the Light-Cycler 480 (Roche). ACTOPIA17 copy number was measured by quantitative PCR (qPCR) in a Light-Cycler 480 (Roche), using […] Master Mix. Actin2 (At3g18780) served as a standard gene for normalization.

| Compound | reduction of global DNA methylation [1] | reduction of DNA methylation at LINE-1 (LINE-1 retrotransposon) | DNA methylation at the ONSEN LTR at higher A concentration (ONSEN LTR; WT (Col) seedlings, A 20 μg/ml, Z 10 μM) | CHH methylation at the ONSEN LTR (ONSEN LTR; after CS, A 5 μg/ml, Z 40 μM) | ONSEN copy number at different α-amanitin concentrations (ONSEN retrotransposon; Col wildtype seedlings, α-amanitin in different concentrations in μg/ml) | ONSEN ecDNA accumulation in dcl2/3/4 triple mutant (ONSEN retrotransposon; dcl2/3/4 triple-mutant grown on A) | ONSEN ecDNA accumulation in rdr6 mutant (ONSEN retrotransposon; rdr6 plants grown on A) | ONSEN ecDNA accumulation after heat stress (ONSEN retrotransposon; wild-type seedlings, A 5 μg/ml, Z 40 μM) |
| --- | --- | --- | --- | --- | --- | --- | --- | --- |
| CC[C@H](C)[C@@H]1NC(=O)CNC(=O)[C@@H]2Cc3c([nH]c4cc(O)ccc34)[S+]([O-])C[C@@H](NC(=O)CNC1=O)C(=O)N[C@@H](CC(N)=O)C(=O)N1C[C@H](O)C[C@H]1C(=O)N[C@@H]([C@@H](C)[C@@H](O)CO)C(=O)N2 (stereo partly drawn) [A, alpha-amanitin] | 40% | 40% | reduction in DNA-methylation; also recorded: strongly reduced DNA methylation | reduced CHH methylation levels | dose dependent accumulation | no effect | still enhancing ecDNA accumulation | increase in ONSEN ecDNA |
| O=c1ncccn1[C@@H]1O[C@H](CO)[C@@H](O)[C@H]1O [Z, zebularine] | – | 20% | – | – | – | – | – | – |
